Laboratory results: patent USRE37516E1, “Acetamide derivative having defined particle size” (Cephalon, Inc., priority 1994, dated 2002)
Where “and” joins values, the source holds several entries; their conditions need not be identical. Equal entries are not always repeated.

Key:
[1] = Modafinil particle size analysis, Hiac/Royco Model 9064 sizing counter; assay type: physicochemical; conditions: for MODAFINIL PARTICLE DIAMETER MEAN / MODAFINIL PARTICLE DIAMETER MEDIAN / MODAFINIL PARTICLE DIAMETER MODE: Hiac/Royco Model 9064, n = 4, +/− standard deviation; for STD DEVIATION BETWEEN MEAN, MEDIAN, MODE: derived from mean, median and mode particle diameter
Source text: Our particle size measurements were obtained using a Hiac/Royco Model 9064 sizing counter following manufacturer instructions (400 μm aperture; saturated water with modafinil solution; PDAS program). A summary of the results of these measurements is presented in Table 1, which includes the mean, median and mode particle sizes for six representative lots of modafinil. For comparative purposes, the standard deviation values derived from the mean, median and mode measurements are provided, as are the ratio values of median:mean:mode. Lots E-A, E-B, E-C and E-D were among the so-called early lots, and Lots L-1 and L-2 were among the so-called late lots.
Measurements obtained using instruments and techniques developed by Hiac/Royko are preferred. A Hiac/Royco sizing counter utilizes the principle of light-extinction (obscuration) for particle size detection. The principle involved is that when a particle suspended in a liquid passes through a sensor microcell where a laser beam is directed through a window at the cell, the particles in the fluid block the laser beam from a light-extinction photodiode (photodetector) resulting in a loss of light intensity. This loss of light intensity detected by the photodetector produces an electrical pulse for each particle. These pulses are proportional in amplitude to the light intensity (light extinction) which is a measure of particle size.

[2] = Plasma modafinil concentration in dogs after single oral dose of lots with different particle size; assay type: in vivo; conditions: single oral dose of 200 mg, capsule, 0 to 36 hours
Method: Given the disparity in results between the foreign and United States studies using what was presumed to be “identical” modafinil, additional non-human analyses were necessary prior to continuation of human clinical trials. Accordingly, animal studies in dogs were carried out to determine the in vivo pharmacokinetics of modafinil with different average particle size diameters, roughly designated as having “small” (Lot L-1) and “large” (Lots E-B and E-D) median particle sizes. Nine male dogs were randomly assigned, according to body weight to three dose groups. Each group was given a single oral dose of 200 of mg modafinil weekly for three weeks in a randomized, cross-over design, as described in Table 2.
After each weekly dose, blood samples (2 ml) were drawn from all animals by venepuncture predose (within one hour of dosing), and at 0.5, 1, 2, 3, 4, 6, 8, 10, 12, 18, 24, and 36 hours post-dose. Blood samples were collected in heparinized (lithium heparin) test tubes and centrifuged at 2,500 to 3,000 rpm. The plasma was drawn off with a glass pipette, and stored frozen (−20° C.) until analyzed. The plasma concentration of modafinil, and its acid and sulfone metabolites were simultaneously determined by high-pressure liquid chromatography, according to the method of Moachon et al. (J. Chromatag. B 654:91 (1994)).

[3] = Dissolution rate of modafinil particles in deionized water (first experiment); assay type: physicochemical; conditions: 50 mg in 500 ml deionized water, stirred, 0-60 minutes, HPLC; L-1 compared with E-D
Method: In the first experiment, 500 ml of deionized water was put in a 1-liter beaker and 50 mg of E-D or L-1 was added. The suspension was stirred constantly with a 5 cm Teflon-coated magnetic stir bar and a magnetic stir plate (Thermolyne model #546725). Samples of 1 ml each were taken at times 0, 1, 5, 10, 15, 20, 25, 30, 40, 50, and 60 minutes, with each sample being replaced with 1 ml of deionized water. The stir plate speed setting was “2” for the first 20 minutes, and “7” from 20 to 60 minutes Each sample was immediately filtered through a 0.45 μm filter, to remove undissolved particles. The filtered samples were assayed for modafinil, by high performance liquid chromatography, based upon the method of Moachon et al. (J. Chromatag. B 654:91 (1994)).

healthy males = assay: First United States Phase I double-blind ascending dose clinical study; assay type: in vivo; conditions: humans, oral, 800 mg/day dose level
Source text: While significant testing of modafinil had already been conducted outside the United States, new drug candidates, such as modafinil, typically undergo clinical research in the United States in order to corroborate the information obtained in foreign studies. The first United States clinical evaluation of modafinil was a double-blind, ascending dose study involving oral administration of modafinil to healthy males (i.e., physically and mentally healthy male subjects 18 to 50 years of age; average body weight of −10% to +15% of normal weight for age, height, frame and sex; 2101).
The planned doses for the first United States clinical trial were 200, 400, 600, 800, 1000, 1200 and 1400 mg/day of modafinil or placebo. These dose levels were based upon the safety profile observed during the foreign clinical testing of modafinil. Subsequent doses were given only when it was determined that the previously administered dose was safe and well tolerated. For example, the safety data for the 200 mg study dose was reviewed and assessed before other volunteers received the 400 mg dose.
In this first United States Phase I clinical study, modafinil from Lot L-1 was utilized. Complete data were obtained for three of the seven modafinil dose levels intended for testing, i.e., 200, 400, and 600 mg/day. […] These symptoms resolved without treatment or sequelae following drug discontinuation. […]

[4] = Modafinil particle size measurement, Coulter Counter TA II sizing counter; assay type: physicochemical
Source text: The value ranges defined above are based upon measurements made utilizing technology and instruments developed by the Hiac/Royko Division of Pacific Scientific (11801 Tech Road, Silver Spring, Md. 20904, United States of America). As those in the art may appreciate, different instruments manufactured by different companies may provide different measurements for the same particles. For example, in a characteristic modafinil lot (Lot L-2), the mean, median, and mode particle measurements obtained using a Coulter Counter TA II sizing counter were 43, 31, and 29 microns, respectively. Using a Hiac/Royko Model 9064 sizing counter, the mean, median and mode particle measurements obtained for Lot L-2 were 18.75, 31.41 and 25.31 microns, respectively. These differences are presumably predicated upon the different approaches used in measuring particles of such diminutive sizes. Thus, the value ranges provided above are relative and are most preferably to be considered in view of utilization of instruments and operating systems manufactured by Hiac/Royko, for example, and preferably, the Hiac/Royko Model 9064 system sizing counter.
Following this assumption, we compared various parameters from lots of the bulk drug; such comparisons had not been conducted previously, given the assumption that the modafinil being tested in the United States was the “same” as that investigated outside of the United States. Particle size distribution of the bulk drug was among the parameters examined. We have performed modafinil particle size analyses with a Hiac/Royko Model 9064 sizing counter, a Coulter Counter sizing counter, by optical microscopy and by scanning electron microscopy.

normal young males = assay: Second United States Phase I study (safety, tolerance, pharmacokinetics); assay type: in vivo, humans; conditions: oral, titrated in 200 mg/day increments, Lots L-1 or L-2
Method: After the discrepancy between the foreign and first United States studies was resolved and determined to be related to the differences in particle sizes, a second Phase I study was conducted in the United States, to further determine the clinical safety, tolerance and pharmacokinetic properties of modafinil having a particle size as defined. The second study involved normal young males and an experimental design similar to the first United States study (described above). In the second study, all subjects began at 200 mg/day using modafinil from Lots L-1 or L-2. Dosage was then titrated, in 200 mg/day increments, up to the target dose.

mice = conditions: single administration; cited from earlier work
monkeys = conditions: single administration; cited from earlier work
humans = conditions: cited from earlier work
[5] = system: patients or healthy volunteers; conditions: doses tested in the foreign studies; cited from earlier work

NC(=O)C[S+]([O-])C(c1ccccc1)c1ccccc1 (centres unmarked) [Lot E-A, 2-(benzhydrylsulfinyl)acetamide]
MODAFINIL PARTICLE DIAMETER MEAN ([1]; listed as E-A): 34.60 +/− 5.21 μm
MODAFINIL PARTICLE DIAMETER MEDIAN ([1]; listed as E-A): 143.65 +/− 3.26 μm
MODAFINIL PARTICLE DIAMETER MODE ([1]; listed as E-A): 176.48 +/− 5.32 μm
STD DEVIATION BETWEEN MEAN, MEDIAN, MODE ([1]; listed as E-A): 74.27

NC(=O)C[S+]([O-])C(c1ccccc1)c1ccccc1 (centres unmarked) [Lot E-B, 2-(benzhydrylsulfinyl)acetamide]
MODAFINIL PARTICLE DIAMETER MEAN ([1]; listed as E-B): 29.99 +/− 1.09 μm
MODAFINIL PARTICLE DIAMETER MEDIAN ([1]; listed as E-B): 89.10 μm and 89.10 +/− 4.28 μm
MODAFINIL PARTICLE DIAMETER MODE ([1]; listed as E-B): 78.59 +/− 2.60 μm
STD DEVIATION BETWEEN MEAN, MEDIAN, MODE ([1]; listed as E-B): 31.53
peak plasma modafinil concentration (mean, nine dogs) ([2]; listed as E-B): 8 µg/mL

NC(=O)C[S+]([O-])C(c1ccccc1)c1ccccc1 (centres unmarked) [Lot E-C, 2-(benzhydrylsulfinyl)acetamide]
MODAFINIL PARTICLE DIAMETER MEAN ([1]; listed as E-C): 28.27 +/− 4.10 μm
MODAFINIL PARTICLE DIAMETER MEDIAN ([1]; listed as E-C): 79.00 +/− 3.78 μm
MODAFINIL PARTICLE DIAMETER MODE ([1]; listed as E-C): 101.00 +/− 40.92 μm
STD DEVIATION BETWEEN MEAN, MEDIAN, MODE ([1]; listed as E-C): 37.30

NC(=O)C[S+]([O-])C(c1ccccc1)c1ccccc1 (centres unmarked) [Lot E-D, 2-(benzhydrylsulfinyl)acetamide]
MODAFINIL PARTICLE DIAMETER MEAN ([1]; listed as E-D): 22.14 +/− 0.76 μm
MODAFINIL PARTICLE DIAMETER MEDIAN ([1]; listed as E-D): 94.05 μm and 94.05 +/− 13.75 μm
MODAFINIL PARTICLE DIAMETER MODE ([1]; listed as E-D): 158.63 +/− 63.81 μm
STD DEVIATION BETWEEN MEAN, MEDIAN, MODE ([1]; listed as E-D): 68.28
peak plasma modafinil concentration (mean, nine dogs) ([2]; listed as E-D): 8 µg/mL

NC(=O)C[S+]([O-])C(c1ccccc1)c1ccccc1 [Lot L-1, 2-(benzhydrylsulfinyl)acetamide]
MODAFINIL PARTICLE DIAMETER MEAN ([1]; listed as L-1): 21.40 +/− 2.52 μm
MODAFINIL PARTICLE DIAMETER MEDIAN ([1]; listed as L-1): 50.18 μm and 50.18 +/− 12.57 μm
MODAFINIL PARTICLE DIAMETER MODE ([1]; listed as L-1): 56.56 +/− 22.39 μm
STD DEVIATION BETWEEN MEAN, MEDIAN, MODE ([1]; listed as L-1): 18.73
dissolution rate [3]: faster dissolution rate
peak plasma modafinil concentration (mean, nine dogs) ([2]; listed as L-1): 10 µg/mL
adverse events (healthy males): elevations in heart rate and blood pressure

NC(=O)C[S+]([O-])C(c1ccccc1)c1ccccc1 [Lot L-2, 2-(benzhydrylsulfinyl)acetamide]
MODAFINIL PARTICLE DIAMETER MEAN ([1]; listed as L-2): 18.75 +/− 1.89 μm
MODAFINIL PARTICLE DIAMETER MEDIAN ([1]; listed as L-2): 31.41 +/− 3.57 μm
MODAFINIL PARTICLE DIAMETER MODE ([1]; listed as L-2): 25.31 +/− 1.34 μm
mean particle measurement ([1]; Hiac/Royko Model 9064): 18.75 microns
median particle measurement ([1]; Hiac/Royko Model 9064): 31.41 microns
mode particle measurement ([1]; Hiac/Royko Model 9064): 25.31 microns
STD DEVIATION BETWEEN MEAN, MEDIAN, MODE ([1]; listed as L-2): 6.36
mean particle measurement [4]: 43 microns
median particle measurement [4]: 31 microns
mode particle measurement [4]: 29 microns

NC(=O)C[S+]([O-])C(c1ccccc1)c1ccccc1 (centres unmarked) [modafinil, 2-(benzhydrylsulfinyl)acetamide]
maximum tolerable dose (MTD) (normal young males): 600 mg/day
minimum intolerable dose (normal young males): 800 mg/day
locomotor activity (mice): increased locomotor activity
nocturnal activity (monkeys): increased nocturnal activity
treatment of idiopathic hypersomnia and narcolepsy (humans): successfully tested
hemodynamic changes in heart rate or blood pressure [5]: No statistically or clinically significant hemodynamic changes
